In publication PMC5772236, “In Vitro Enzymatic Depolymerization of Lignin with Release of Syringyl, Guaiacyl, and Tricin Units” (Applied and Environmental Microbiology, 2018):

Legend:
Format in all cases: biochemical
[1] = target: T1, AvGR (Allochromatium vinosum, UniProt D3RSV1); assay: coupled assay with and without AvGR, HPLC of products; settings: 25 mM Tris, 2% DMSO, pH 8.0; NADH formed in situ by LigD/LigN; GSSG co-substrate
T1 construct: gene Alvin_1323; recombinant, E. coli B834, codon optimized, pVP302K; N-terminal His tag cut by Tev protease
T1 sequence (D3RSV1 1-458): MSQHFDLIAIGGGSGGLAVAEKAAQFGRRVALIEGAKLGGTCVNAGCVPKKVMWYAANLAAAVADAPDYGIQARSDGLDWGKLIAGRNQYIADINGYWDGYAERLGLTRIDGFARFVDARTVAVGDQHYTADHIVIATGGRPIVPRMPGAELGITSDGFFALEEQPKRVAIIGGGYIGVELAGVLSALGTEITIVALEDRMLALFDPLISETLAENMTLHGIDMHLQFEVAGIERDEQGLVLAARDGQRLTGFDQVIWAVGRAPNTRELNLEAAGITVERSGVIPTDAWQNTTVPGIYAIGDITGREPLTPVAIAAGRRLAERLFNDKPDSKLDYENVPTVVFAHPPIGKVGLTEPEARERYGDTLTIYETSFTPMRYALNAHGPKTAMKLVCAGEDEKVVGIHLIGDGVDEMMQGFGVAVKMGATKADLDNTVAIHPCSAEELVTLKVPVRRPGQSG

[2] = target: T2, LigG (Sphingomonas paucimobilis, UniProt Q9WXJ9); assay: coupled assay, HPLC of products; settings: 25 mM Tris, 2% DMSO, pH 8.0, GSH co-substrate; GS-HPV formed in situ by LigD/LigN/LigE/LigF; epimers not both completely cleaved
T2 construct: recombinant, E. coli, codon optimized; His tag cut by Tev protease (procedure cited)
T2 sequence (Q9WXJ9 1-265): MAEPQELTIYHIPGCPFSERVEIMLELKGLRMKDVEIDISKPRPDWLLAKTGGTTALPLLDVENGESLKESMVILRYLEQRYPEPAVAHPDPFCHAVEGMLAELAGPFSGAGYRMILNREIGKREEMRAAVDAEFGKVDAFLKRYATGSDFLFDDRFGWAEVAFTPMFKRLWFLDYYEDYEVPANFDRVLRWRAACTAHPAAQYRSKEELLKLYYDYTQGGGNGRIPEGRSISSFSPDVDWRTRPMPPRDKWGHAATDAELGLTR

[3] = target: T3, NaGSTNU (Novosphingobium aromaticivorans, UniProt Q2G542); assay: coupled assay with and without enzyme, HPLC of products; settings: 25 mM Tris, 2% DMSO, pH 8.0, GSH co-substrate; GS-HPV formed in situ by LigD/LigN/LigE/LigF; both beta-epimers cleaved
T3 construct: gene Saro_2595; recombinant, E. coli B834; N-terminal His tag cut by Tev protease; cloned from genomic DNA
T3 sequence (Q2G542 1-288): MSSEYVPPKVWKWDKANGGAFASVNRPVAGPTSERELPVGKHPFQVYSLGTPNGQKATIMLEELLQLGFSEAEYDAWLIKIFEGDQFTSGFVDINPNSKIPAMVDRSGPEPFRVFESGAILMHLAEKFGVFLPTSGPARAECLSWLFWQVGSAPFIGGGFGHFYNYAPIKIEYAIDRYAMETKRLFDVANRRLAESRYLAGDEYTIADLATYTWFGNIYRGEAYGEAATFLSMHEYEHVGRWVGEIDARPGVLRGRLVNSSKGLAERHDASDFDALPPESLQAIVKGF

| SMILES | coupled assay with and without AvGR, HPLC of products [1] | coupled assay, HPLC of products [2] | coupled assay with and without enzyme, HPLC of products [3] |
| --- | --- | --- | --- |
| NC(=O)C1=CN([C@@H]2O[C@H](COP(=O)(O)OP(=O)(O)OC[C@H]3O[C@@H](n4cnc5c(N)ncnc54)[C@H](O)[C@@H]3O)[C@@H](O)[C@H]2O)C=CC1 [NADH] | the presence of AvGR is sufficient to recycle the cosubstrates NAD^+ and GSH | – | – |
| COc1cc(C(=O)C(CO)SC[C@H](NC(=O)CC[C@H](N)C(=O)O)C(=O)NCC(=O)O)ccc1O (mixture of isomers) [GS-HPV, β-S-glutathionyl-γ-hydroxypropiovanillone] | – | LigG is not able to completely cleave both β-epimers of GS-HPV in vitro | the absence of NaGSTNU prevented the conversion of GS-HPV to HPV |
